Where a name gives a salt, the structure may show the parent alone. Read-outs that look alike come from different tables or passages of the source. Bridge positions count the residues as written; N and C are the ends. Ends that are not written are not given here. Peptide text beside a SMILES is read from it.
Assays:
[1] = system: C. albicans HMV4C; assay: microbe, parasite or virus in culture; details: for Minimal inhibitory concentration (MIC) / Activity in gels with 1.0% denture adhesive compared with gels without: C. albicans HMV4C; for Activity in gels with 1.0% denture adhesive compared with gels without: result in words, Tukey HSD, 0.05 level; for MIC: Candida albicans, HMV4C
Protocol: (§1) C. albicans strains ATCC 64124 and HMV4C were used and cultivated as previously described. Their identities were verified (State Hygienic Laboratory, University of Iowa Research Park, Coralville, IA, USA). These cultures were adjusted to contain 1.2–3.7 × 10^6 CFU/mL in Roswell Park Memorial Institute (RPMI) 1640 medium.
(§2) The denture adhesive used was a standard, over-the-counter gel containing poly sodium-calcium mixed partial salt, petrolatum, cellulose gum, and mineral oil and was prepared as previously described. Denture adhesive was too viscous to use directly and was diluted to 1.0% for incorporation into the radial diffusion assay.
(§3) Each agent was reconstituted in distilled water with 0.01% acetic acid for resuspension to keep the agent in solution. Two-fold dilutions were prepared.
(§4) The radial diffusion assays were performed as described with the following unique modifications. Underlay agarose gels were prepared with and without 1.0% denture adhesive in square petri dishes (Electron Microscopy Sciences, Hatfield, PA, USA). Plates without 1.0% adhesive contained 12.5 mL of 10.0 mM sodium phosphate buffer adjusted to pH 7.4, 12.5 mL of 2.0% agarose (Agarose LE, Roche Diagnostics Corporation, Indianapolis, IN, USA) in 10.0 mM sodium phosphate adjusted to pH 7.4, and 1.0 mL of C. albicans culture per plate. Plates with 1.0% adhesive contained 12.5 mL of 2.0% dental adhesive in 10.0 mM sodium phosphate adjusted to pH 7.4, 12.5 mL 2.0% agarose (Agarose LE, Roche Diagnostics Corporation, Indianapolis, IN, USA) in 10.0 mM sodium phosphate adjusted to pH 7.4, and 1.0 mL of C. albicans culture. Wells of 2.0 mm in diameter were created and filled with 5.0 µL of AMP or antifungal antibiotic dilution (n = three replications per test). A blank of 0.01% acetic acid in distilled water was also included. The plates were incubated at 37 °C for 3 h. After incubation, 10.0 mL of overlay containing 1.0% agarose in 10.0 mM phosphate buffer with 6.0% RPMI 1640, was added to each plate. The plates were incubated at 37 °C overnight. At 24 h, antimicrobial activity was determined by measuring the zone of clearance around the center of each well and extrapolating MIC as described.
(§5) When MICs fell outside the range of the assay, we considered the MIC to be equal to the highest concentration used in the assay. […] One-way fixed-effects ANOVA models were fit to the µM MIC values. Pairwise group comparisons were conducted using the method of Tukey’s Honest Significant Differences (HSD). A 0.05 level was used to determine statistically significant differences. All analyses were conducted using JMP (Version 10.0, SAS, Cary, NC, USA).

[2] = system: C. albicans ATCC 64124; assay: microbe, parasite or virus in culture; details: for Minimal inhibitory concentration (MIC) / Activity in gels with 1.0% denture adhesive compared with gels without: C. albicans ATCC 64124; for Activity in gels with 1.0% denture adhesive compared with gels without: result in words, Tukey HSD, 0.05 level; for MIC: Candida albicans
Protocol: as §1, §2, §3, §4, §5

[3] = system: Candida albicans; details: broth microdilution, p < 0.05; cited from earlier work
Text: Candida species infections can cause complications for individuals with dentures, such as denture stomatitis.

[4] = No Adhesive, radial diffusion, mean (standard error, n = 3)
[5] = in both gels with or without 1.0% denture adhesive
[6] = Adhesive (1.0% denture adhesive in gel), radial diffusion, pH 7.4, 37 °C, read at 24 h, mean (standard error, n = 3)
[7] = Adhesive (1.0% denture adhesive in gel), radial diffusion, mean (standard error, n = 3)

Row | Minimal inhibitory concentration (MIC) [1, 4] | Minimal inhibitory concentration (MIC) [2, 5] [µM] | Compound | Activity in gels with 1.0% denture adhesive compared with gels without ([1]; radial diffusion) | Activity in gels with 1.0% denture adhesive compared with gels without ([2]; radial diffusion) | Loss of antimicrobial activity in 1.0% denture adhesive [3] | other results
1 | >254.1 (0.0) µM | > 254.1 | CC[C@H](C)[C@@H]1NC(=O)[C@H](CCCCN)NC(=O)[C@H]([C@@H](C)O)NC(=O)[C@H](Cc2ccccc2)NC(=O)[C@H]([C@@H](C)CC)NC(=O)[C@@H]2CCCN2C(=O)[C@@H]2CSSC[C@@H](C(=O)N[C@@H](CCCCN)C(=O)O)NC(=O)[C@@H]3CSSC[C@H](NC(=O)[C@H](CC(N)=O)NC(=O)[C@H](Cc4ccc(O)cc4)NC(=O)[C@H](Cc4c[nH]cn4)NC(=O)[C@@H](N)CC(=O)O)C(=O)N[C@@H](C(C)C)C(=O)N[C@@H](CO)C(=O)N[C@@H](CO)C(=O)NCC(=O)NCC(=O)N[C@@H](CCC(N)=O)C(=O)N[C@@H](CSSC[C@H](NC(=O)[C@H]([C@@H](C)O)NC(=O)CNC(=O)[C@H](CCC(N)=O)NC1=O)C(=O)N[C@@H](Cc1ccc(O)cc1)C(=O)N[C@@H](CCCNC(=N)N)C(=O)NCC(=O)N[C@@H](CCCCN)C(=O)N[C@@H](C)C(=O)N[C@@H](CCCCN)C(=O)N3)C(=O)N[C@@H](CC(C)C)C(=O)N[C@@H](Cc1ccc(O)cc1)C(=O)N[C@@H](CO)C(=O)N[C@@H](C)C(=O)N2 [HBD-1] (H-DHYNCVSSGGQCLYSACPIFTKIQGTCYRGKAKCCK-OH; disulfide 5-34, 12-27, 17-35 (inferred); N-terminus and C-terminus assumed) |  |  |  | Minimal inhibitory concentration (MIC) [1, 5]: > 254.1 µM
2 |  |  | GIGDPVTCLKSGAICHPVFCPRRYKQIGTCGLPGTKCCKKP (disulfide 8-37, 15-30, 20-38 (inferred)) [HBD-2] | diminished activity | diminished activity |  | 
3 |  |  | [H]/N=C(\N/C(=N/[H])NCCCCCCNC(=N)NC(=N)Nc1ccc(Cl)cc1)Nc1ccc(Cl)cc1 [Chlorhexidine dihydrochloride] | same | same | did not | MIC ([1]; 24 h, pH 7.4, read-out: Minimal inhibitory concentration (MIC), C. albicans HMV4C, Adhesive (1.0% denture adhesive in gel), radial diffusion, pH 7.4, 37 °C, read at 24 h, mean (standard error, n = 3)): 11.1 µg/mL; MIC ([1]; 24 h, pH 7.4, read-out: Minimal inhibitory concentration (MIC), C. albicans HMV4C, No Adhesive, radial diffusion, agarose in 10.0 mM sodium phosphate pH 7.4, 37 °C, read at 24 h, mean (standard error, n = 3)): 5.7 µg/mL; MIC ([1]; read-out: Minimal inhibitory concentration (MIC), C. albicans HMV4C, Adhesive (1.0% denture adhesive in gel), radial diffusion, mean (standard error, n = 3)): 19.2 µM; MIC ([1]; read-out: Minimal inhibitory concentration (MIC), C. albicans HMV4C, No Adhesive, radial diffusion, mean (standard error, n = 3)): 9.9 µM; MIC ([2]; ATCC64124, 24 h, pH 7.4, read-out: Minimal inhibitory concentration (MIC), C. albicans ATCC 64124, Adhesive (1.0% denture adhesive in gel), radial diffusion, pH 7.4, 37 °C, read at 24 h, mean (standard error, n = 3)): 4.6 µg/mL; MIC ([2]; ATCC64124, 24 h, pH 7.4, read-out: Minimal inhibitory concentration (MIC), C. albicans ATCC 64124, No Adhesive, radial diffusion, pH 7.4, 37 °C, read at 24 h, mean (standard error, n = 3)): 6.9 µg/mL; MIC ([2]; ATCC64124, read-out: Minimal inhibitory concentration (MIC), C. albicans ATCC 64124, Adhesive (1.0% denture adhesive in gel), radial diffusion, mean (standard error, n = 3)): 8 µM; MIC ([2]; ATCC64124, read-out: Minimal inhibitory concentration (MIC), C. albicans ATCC 64124, No Adhesive, radial diffusion, mean (standard error, n = 3)): 11.9 µM
4 | 2.2 (0.0) µM |  | IP-10: recombinant human CXCL10 (Peprotech) | diminished activity | diminished activity |  | Minimal inhibitory concentration (MIC) [1, 6]: >200.0 (0.0) µg/mL; Minimal inhibitory concentration (MIC) [1, 7]: >23.1 (0.0) µM; Minimal inhibitory concentration (MIC) ([1]; No Adhesive, radial diffusion, agarose in 10.0 mM sodium phosphate pH 7.4, 37 °C, read at 24 h, mean (standard error, n = 3)): 18.6 (0.3) µg/mL; Minimal inhibitory concentration (MIC) [2, 6]: >1000.0 (0.0) µg/mL; Minimal inhibitory concentration (MIC) [2, 7]: >115.7 (0.0) µM; Minimal inhibitory concentration (MIC) ([2]; No Adhesive, radial diffusion, pH 7.4, 37 °C, read at 24 h, mean (standard error, n = 3)): 103.6 (3.2) µg/mL; Minimal inhibitory concentration (MIC) [2, 4]: 12.0 (0.4) µM
5 |  |  | CCCCCCCCCCCCC/C=C/[C@@H](O)[C@@H](N)CO [sphingosine] |  |  | lost antimicrobial activity | 
6 |  |  | GIINTLQKYYCRVRGGRCAVLSCLPKEEQIGKCSTRGRKCCRRKK (disulfide 11-40, 18-33, 23-41 (inferred)) [HBD-3] | diminished activity | diminished activity |  | 
7 |  |  | CCCCCCCCCCCCCCC[C@@H](O)[C@@H](N)CO [dihydrosphingosine] |  |  | lost antimicrobial activity | 
8 |  | > 329.0 | C[C@H](NC(=O)[C@H](Cc1c[nH]cn1)NC(=O)[C@H](CO)NC(=O)[C@@H](N)CC(=O)O)C(=O)N[C@@H](CCCCN)C(=O)N[C@@H](CCCNC(=N)N)C(=O)N[C@@H](Cc1c[nH]cn1)C(=O)N[C@@H](Cc1c[nH]cn1)C(=O)NCC(=O)N[C@@H](Cc1ccc(O)cc1)C(=O)N[C@@H](CCCCN)C(=O)N[C@@H](CCCNC(=N)N)C(=O)N[C@@H](CCCCN)C(=O)N[C@@H](Cc1ccccc1)C(=O)N[C@@H](Cc1c[nH]cn1)C(=O)N[C@@H](CCC(=O)O)C(=O)N[C@@H](CCCCN)C(=O)N[C@@H](Cc1c[nH]cn1)C(=O)N[C@@H](Cc1c[nH]cn1)C(=O)N[C@@H](CO)C(=O)N[C@@H](Cc1c[nH]cn1)C(=O)N[C@@H](CCCNC(=N)N)C(=O)NCC(=O)N[C@@H](Cc1ccc(O)cc1)C(=O)O [Histatin 5] | diminished activity |  |  | 
9 |  |  | CCCCCCCCCCCCCC[C@@H](O)[C@@H](O)[C@@H](N)CO [phytosphingosine] |  |  | lost antimicrobial activity | 

Row | Compound | Minimal inhibitory concentration (MIC) [1, 4] | Minimal inhibitory concentration (MIC) [2, 5] [µM] | Activity in gels with 1.0% denture adhesive compared with gels without ([1]; radial diffusion) | Activity in gels with 1.0% denture adhesive compared with gels without ([2]; radial diffusion) | Loss of antimicrobial activity in 1.0% denture adhesive [3] | other results
10 | CC[C@H](C)[C@H](NC(=O)[C@H](CCCCN)NC(=O)[C@H](CCC(=O)O)NC(=O)[C@H](CCCCN)NC(=O)[C@H](CO)NC(=O)[C@H](CCCCN)NC(=O)[C@H](CCCNC(=N)N)NC(=O)[C@H](Cc1ccccc1)NC(=O)[C@H](Cc1ccccc1)NC(=O)[C@H](CC(=O)O)NC(=O)CNC(=O)[C@H](CC(C)C)NC(=O)[C@@H](N)CC(C)C)C(=O)NCC(=O)N[C@@H](CCCCN)C(=O)N[C@@H](CCC(=O)O)C(=O)N[C@@H](Cc1ccccc1)C(=O)N[C@@H](CCCCN)C(=O)N[C@@H](CCCNC(=N)N)C(=O)N[C@H](C(=O)N[C@H](C(=O)N[C@@H](CCC(N)=O)C(=O)N[C@@H](CCCNC(=N)N)C(=O)N[C@H](C(=O)N[C@@H](CCCCN)C(=O)N[C@@H](CC(=O)O)C(=O)N[C@@H](Cc1ccccc1)C(=O)N[C@@H](CC(C)C)C(=O)N[C@@H](CCCNC(=N)N)C(=O)N[C@@H](CC(N)=O)C(=O)N[C@@H](CC(C)C)C(=O)N[C@H](C(=O)N1CCC[C@H]1C(=O)N[C@@H](CCCNC(=N)N)C(=O)N[C@H](C(=O)N[C@@H](CCC(=O)O)C(=O)N[C@@H](CO)C(=O)O)[C@@H](C)O)C(C)C)[C@@H](C)CC)C(C)C)[C@@H](C)CC [LL37] | 30.4 (1.0) µM | > 222.4 | diminished activity |  |  | Minimal inhibitory concentration (MIC) [1, 7]: >222.4 (0.0) µM; Minimal inhibitory concentration (MIC) [2, 7]: >222.4 (0.0) µM; Minimal inhibitory concentration (MIC) [2, 4]: >222.4 (0.0) µM

— article PMC5372986, “Diminished Antimicrobial Peptide and Antifungal Antibiotic Activities against Candida albicans in Denture Adhesive” (Antibiotics, 2017)
